From patent US20240245658A1, “TAAR1 AND SEROTONIN MODULATORS, AND PHARMACEUTICAL COMPOSITIONS, AND METHODS OF USE THEREOF” (Sunovion Pharmaceuticals Inc., priority 2021, published 2024)
Where two headings read alike, the source gives them in different places.

Key:
Format in all cases: cell-based
[1] = target: T1, human 5-HT2A receptor (Homo sapiens, UniProt P28223); test: 5HT2A Antagonism Assay (Euroscreen FAST-05051), IP-One HTRF
T1 construct: host or cells: CHO-K1
Procedure, shortened: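 CHO-K1 cells expressing receptor, 20,000/well, co-incubated with test compound and reference agonist at its EC80 for 60 min at 37 °C. IP1 accumulation read by HTRF after ~1 h detection at room temperature. Compounds tested in duplicate at 0.3–10,000 nM.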

[2] = target: T2, human 5-HT7 receptor (Homo sapiens, UniProt P34969); test: 5HT7 Antagonism Assay (Euroscreen FAST-0499C), cAMP HTRF; settings: CHO-K1 cells expressing human 5-HT7, reference agonist at EC80, cAMP HTRF
T2 construct: host or cells: CHO-K1
Procedure, shortened: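 CHO-K1 cells expressing human 5-HT7, 3000 per well in Krebs-Ringer HEPES with 1 mM IBMX, were exposed for 30 minutes at room temperature to compound plus reference agonist at its EC80. cAMP was read by HTRF after 1 hour; compounds were tested in duplicate from 0.3 to 10,000 nM.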

[3] = target: T3, human TAAR1 receptors (Homo sapiens, UniProt Q96RJ0); test: TAAR1 Agonism Assay: cAMP HTRF assay for Gs coupled receptor TAAR1 (Euroscreen FAST-0987C); settings: CHO-K1 cells expressing human TAAR1, cAMP HTRF
T3 construct: host or cells: CHO-K1
T3 sequence (Q96RJ0 1-339): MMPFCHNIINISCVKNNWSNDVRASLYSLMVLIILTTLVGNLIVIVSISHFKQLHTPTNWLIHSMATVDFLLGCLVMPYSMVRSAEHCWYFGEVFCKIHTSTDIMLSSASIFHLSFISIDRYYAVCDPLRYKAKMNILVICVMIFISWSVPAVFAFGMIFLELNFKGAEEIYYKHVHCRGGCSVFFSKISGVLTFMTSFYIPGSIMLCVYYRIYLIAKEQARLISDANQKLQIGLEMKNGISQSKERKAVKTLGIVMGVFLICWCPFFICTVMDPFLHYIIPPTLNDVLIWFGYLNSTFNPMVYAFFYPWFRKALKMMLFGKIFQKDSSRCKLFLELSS
Procedure, shortened: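 cAMP accumulation detected by HTRF fluorescence ratio, reagents added in lysis buffer and incubated 1 h at about room temperature. Beforehand, cells (about 3,000 per well) sat with test compound at ten concentrations from 0.3 to 10,000 nM in duplicate for roughly 30 min at about room temperature; tyramine dose-response run alongside.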

[4] = 5-HT2A (IC50), CHO-K1 cells expressing human 5-HT2A, reference agonist at EC80, IP-One
[5] = CHO-K1 cells expressing human 5-HT2A, reference agonist at EC80, IP-One, read-out: 5-HT2A (IC50)
[6] = read-out: 5-HT2A (IC50), CHO-K1 cells expressing human 5-HT2A, reference agonist at EC80, IP-One

T1 sequence (P28223 whole entry): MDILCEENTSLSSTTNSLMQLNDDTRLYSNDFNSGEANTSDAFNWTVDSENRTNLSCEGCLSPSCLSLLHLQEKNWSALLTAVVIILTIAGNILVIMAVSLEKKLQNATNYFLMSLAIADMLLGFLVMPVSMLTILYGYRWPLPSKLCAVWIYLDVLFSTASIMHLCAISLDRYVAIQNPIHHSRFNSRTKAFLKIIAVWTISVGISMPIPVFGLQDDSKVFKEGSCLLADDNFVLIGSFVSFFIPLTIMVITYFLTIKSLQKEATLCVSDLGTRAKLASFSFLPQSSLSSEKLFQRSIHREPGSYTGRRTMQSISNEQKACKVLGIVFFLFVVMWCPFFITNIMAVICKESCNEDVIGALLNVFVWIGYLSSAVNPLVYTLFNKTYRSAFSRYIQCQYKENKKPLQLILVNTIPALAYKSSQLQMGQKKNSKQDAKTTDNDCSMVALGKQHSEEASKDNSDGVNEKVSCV
T2 sequence (P34969 whole entry): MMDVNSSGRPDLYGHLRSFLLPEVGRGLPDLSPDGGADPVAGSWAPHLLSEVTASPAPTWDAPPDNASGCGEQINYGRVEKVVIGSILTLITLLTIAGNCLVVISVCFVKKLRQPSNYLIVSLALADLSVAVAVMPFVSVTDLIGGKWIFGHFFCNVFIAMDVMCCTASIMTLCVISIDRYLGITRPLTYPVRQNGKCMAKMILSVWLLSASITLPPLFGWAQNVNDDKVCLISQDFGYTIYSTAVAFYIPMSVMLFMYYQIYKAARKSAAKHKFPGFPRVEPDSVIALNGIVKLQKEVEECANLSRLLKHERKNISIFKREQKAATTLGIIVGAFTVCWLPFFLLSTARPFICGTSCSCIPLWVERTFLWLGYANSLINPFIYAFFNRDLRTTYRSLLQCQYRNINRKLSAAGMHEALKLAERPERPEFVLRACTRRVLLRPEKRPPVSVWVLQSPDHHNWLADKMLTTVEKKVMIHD

Compound	IC50 [1, 4] [µM]	IC50 [2] [µM]	EC50 [3] [µM]	IC50 [1, 5] [µM]	IC50 [1, 6] [µM]
NCC1Cc2ncccc2Oc2cccc(F)c21 (single isomer, unassigned) [Compound 156, (S*)-(9-fluoro-10,11-dihydrobenzo[6,7]oxepino[3,2-b]pyridin-10-yl)methanamine]	> 10	≥ 10	< 1		
CNCC1Cc2ncccc2Oc2cccc(F)c21 (single isomer, unassigned) [Compound 158, (S*)-(9-fluoro-10,11-dihydrobenzo[6,7]oxepino[3,2-b]pyridin-10-yl)-N-methylmethanamine]		≥ 10	1 to 10	> 10	
N#Cc1ccc2c(c1)C(CN)Cc1ncccc1O2 (single isomer, unassigned) [Compound 159, (R*)-10-(aminomethyl)-10,11-dihydrobenzo[6,7]-oxepino[3,2-b]pyridine-8-carbonitrile]	> 10	≥ 10	1 to 10		
N#Cc1ccc2c(c1)C(CN)Cc1ncccc1O2 (single isomer, unassigned) [Compound 160, (S*)-10-(aminomethyl)-10,11-dihydrobenzo[6,7]oxepino[3,2-b]pyridine-8-carbonitrile]	< 1	1 to 10	< 1		
CNCC1Cc2ncccc2Oc2ccc(C#N)cc21 (single isomer, unassigned) [Compound 161, (R*)-10-((methylamino)methyl)-10,11-dihydrobenzo[6,7]oxepino[3,2-b]pyridine-8-carbonitrile]		≥ 10	> 10	1 to 10	
CNCC1Cc2ncccc2Oc2ccc(C#N)cc21 (single isomer, unassigned) [Compound 162, (S*)-10-((methylamino)methyl)-10,11-dihydrobenzo[6,7]oxepino[3,2-b]pyridine-8-carbonitrile]		≥ 10	> 10	1 to 10	
NCC1Cc2ncccc2Oc2ccc(F)cc21 (single isomer, unassigned) [Compound 163, (R*)-(8-fluoro-10,11-dihydrobenzo[6,7]oxepino[3,2-b]pyridin-10-yl)methanamine]	1 to 10	≥ 10	1 to 10		
NCC1Cc2ncccc2Oc2ccc(F)cc21 (single isomer, unassigned) [Compound 164, (S*)-(8-fluoro-10,11-dihydrobenzo[6,7]oxepino[3,2-b]pyridin-10-yl)methanamine]		≥ 10	< 1		1 to 10
CNCC1Cc2ncccc2Oc2ccc(F)cc21 (single isomer, unassigned) [Compound 165, (R*)-(8-fluoro-10,11-dihydrobenzo[6,7]oxepino[3,2-b]pyridin-10-yl)-N-methylmethanamine]	< 1	≥ 10	> 10		
CNCC1Cc2ncccc2Oc2ccc(F)cc21 (single isomer, unassigned) [Compound 166, (S*)-(8-fluoro-10,11-dihydrobenzo[6,7]oxepino[3,2-b]pyridin-10-yl)-N-methylmethanamine]		1 to 10	< 1		< 1
NCC1Cc2ncccc2Oc2ccc(Cl)cc21 (single isomer, unassigned) [Compound 167, (R*)-(8-chloro-10,11-dihydrobenzo[6,7]oxepino[3,2-b]pyridin-10-yl)methanamine]	1 to 10	≥ 10	< 1		
CNCC1Cc2ncccc2Oc2ccc(Cl)cc21 (single isomer, unassigned) [Compound 170, (S*)-1-(8-chloro-10,11-dihydrobenzo[6,7]oxepino[3,2-b]pyridin-10-yl)-N-methylmethanamine]	< 1	< 1	< 1		
NCC1Cc2ncccc2Oc2cc(Cl)ccc21 (single isomer, unassigned) [Compound 171, (R*)-(7-chloro-10,11-dihydrobenzo[6,7]oxepino[3,2-b]pyridin-10-yl)methanamine]	< 1	≥ 10	1 to 10		
NCC1Cc2ncccc2Oc2cc(Cl)ccc21 (single isomer, unassigned) [Compound 172, (S*)-(7-chloro-10,11-dihydrobenzo[6,7]oxepino[3,2-b]pyridin-10-yl)methanamine]		≥ 10	< 1		< 1
CNCC1Cc2ncccc2Oc2cc(Cl)ccc21 (single isomer, unassigned) [Compound 173, (R*)-1-(7-chloro-10,11-dihydrobenzo[6,7]oxepino[3,2-b]pyridin-10-yl)-N-methylmethanamine]		≥ 10	> 10	< 1	
CNCC1Cc2ncccc2Oc2cc(Cl)ccc21 (single isomer, unassigned) [Compound 174, (S*)-1-(7-chloro-10,11-dihydrobenzo[6,7]oxepino[3,2-b]pyridin-10-yl)-N-methylmethanamine]		1 to 10	> 10	< 1	
NCC1Cc2ncccc2Oc2c(F)cccc21 (single isomer, unassigned) [Compound 176, (S*)-(6-fluoro-10,11-dihydrobenzo[6,7]oxepino[3,2-b]pyridin-10-yl)methanamine]	> 10	≥ 10	< 1		
NCC1Cc2ncc(Cl)cc2Oc2ccccc21 (single isomer, unassigned) [Compound 179, (R*)-(3-chloro-10,11-dihydrobenzo[6,7]oxepino[3,2-b]pyridin-10-yl)methanamine]	1 to 10	≥ 10	1 to 10		
NCC1Cc2ncc(Cl)cc2Oc2ccccc21 (single isomer, unassigned) [Compound 180, (S*)-(3-chloro-10,11-dihydrobenzo[6,7]oxepino[3,2-b]pyridin-10-yl)methanamine]		≥ 10	< 1		1 to 10
C[C@@H]1c2ccccc2Oc2cccnc2[C@@H]1CN (stereo in doubt) [Compound 112, ((10S*,11S*)-10-methyl-10,11-dihydrobenzo[6,7]oxepino[3,2-b]pyridin-11-yl)methanamine]	> 10	≥ 10	< 1		
C[C@@H]1c2ccccc2Oc2cccnc2[C@H]1CN (stereo in doubt) [Compound 114, ((10S*,11R*)-10-methyl-10,11-dihydrobenzo[6,7]oxepino[3,2-b]pyridin-11-yl)methanamine]	1 to 10	≥ 10	< 1		
C[C@H]1c2ccccc2Oc2cccnc2[C@@H]1CN (stereo in doubt) [Compound 115, ((10R*,11S*)-10-methyl-10,11-dihydrobenzo[6,7]oxepino[3,2-b]pyridin-11-yl)methanamine]	> 10	≥ 10	1 to 10		
CNC[C@H]1c2ncccc2Oc2ccccc2[C@H]1C (stereo in doubt) [Compound 116, ((10S*,11S*)-10-methyl-10,11-dihydrobenzo[6,7]oxepino[3,2-b]pyridin-11-yl)-N-methylmethanamine]	1 to 10	≥ 10	< 1		
CNC[C@@H]1c2ncccc2Oc2ccccc2[C@H]1C (stereo in doubt) [Compound 118, ((10S*,11R*)-10-methyl-10,11-dihydrobenzo[6,7]oxepino[3,2-b]pyridin-11-yl)-N-methylmethanamine]	1 to 10	≥ 10	< 1		
CNC[C@H]1c2ncccc2Oc2ccccc2[C@@H]1C (stereo in doubt) [Compound 119, ((10R*,11S*)-10-methyl-10,11-dihydrobenzo[6,7]oxepino[3,2-b]pyridin-11-yl)-N-methylmethanamine]	1 to 10	≥ 10	1 to 10		
NCC1Oc2ccccc2Cc2ccccc21 (stereo not drawn) [Compound 77, (6,11-dihydrodibenzo[b,e]oxepin-6-yl)methanamine]		≥ 10	< 1	1 to 10	
